# From patent US20230027066A1 (Urovant Sciences GmbH, priority 2019, published 2023)
# Columns and labels:
# Format in all cases: in vivo, human
# [1] = tested on: men and women with overactive bladder; experiment: Phase 3 study (75 mg), patient-reported outcomes (OAB-q LF, PGI); design: OAB-q sleep score, improvement greater than placebo / HRQL Total Score, improvement greater than placebo / OAB-q HRQL Total Score, Active - Placebo LS Means Difference: scale not given here
# Source text: Patients completed paper questionnaires at the site at the start of each required study visit to assess patient-perceived symptom relief, symptom bother, and health-related quality of life at the study visits. […] These included the following questionnaires:
# 1. Global Impression Items include Patient Global Impression of Severity (PGI-Severity), Patient Global Impression of Control (PGI-Control), Patient Global Impression of Frequency (PGI-Frequency), Patient Global Impression of Leakage (PGI-Leakage), and Patient Global Impression of Change (PGI-Change).
# 2. Overactive Bladder Questionnaire (OAB-q long form [OAB-q LF], 1-week recall) is a 33-item patient-administered, disease-specific questionnaire that includes a Health-Related QoL (HRQL) scale (25 items) and a Symptom Bother Scale (8 items). The HRQL is a multidomain concept that represents the patient's general perception of the effect of illness and treatment on physical, psychological, and social aspects of life. […] In the present study, the HRQL scale is divided into 4 subscales: Coping, Concern/Worry, Sleep, and Social Interaction. The Coping subscale (also referred to as the coping domain score) was a secondary endpoint, with items scored from 1 (none of the time) to 6 (all the time), with higher scores indicating better QoL. The HRQL total score is calculated by summating the individual HRQL subscale scores. The Symptom Bother Scale items are scored from 1 (not at all) to 6 (a very great deal), with higher Symptom Bother scores indicating greater symptom severity. The instrument was developed and validated in both continent and incontinent OAB patients, including both men and women.
# With the exception of the symptom bother score, a responder was defined as having a change from baseline ≥10. For symptom bother score, a responder was defined as having a change from baseline […]. A higher proportion of patients represented a favorable response.
# [2] = tested on: men and women with OAB; experiment: Phase 2b study of vibegron in OAB, Part 1, efficacy at Week 8 (voiding diary); details: tolterodine ER 4 mg
# Source text: Part 2 was designed to continue to assess the safety and efficacy of concomitant dosing. […] Subjects in both Part 1 and Part 2 had the option of enrolling in a 1-year extension. Participants were required to keep a voiding diary, recording the occurrence of each strong urge, total incontinence, and urge incontinence episode. Efficacy data for Part 1 and Part 2 are summarized herein.
# The total number of urgency incontinence episodes must have exceeded the total number of stress incontinence episodes for all subjects.
# [3] = Phase 3 study (75 mg), post-void residual urine volume (PVR)
# Source text: The risk of acute urinary retention or morbidities related to an increase in Post-Void Residual (PVR) is a concern with antimuscarinic therapy that promotes smooth muscle relaxation by inhibiting acetylcholine-induced smooth muscle contraction. If, during contraction, the bladder cannot generate enough pressure to overcome the outlet resistance in the urethra, either because of poor detrusor contractility or profound obstruction (most commonly from BPH), acute urinary retention or incomplete emptying of the bladder may result.
# The volume of urine that remains in the bladder after voiding (PVR) is an objective measurement that may serve as a proxy for impaired ability to void.
# PVR were performed via ultrasound at the visits indicated in the Schedule of Activities.
# [4] = 50% Total Incontinence Responders, Week 12
# [5] = Week 12, responder = change from baseline ≥10
# [6] = Males with medical history of BPH
compound,measurement,setting,value
"Cc1ccc(O)c([C@H](CCN(C(C)C)C(C)C)c2ccccc2)c1 [Tolterodine ER, tolterodine, reference compound]","OAB-q Coping Subscore, Change from baseline at week 12, LS Means (SE)",[1]; [4],18.5 (1.49)
same,"OAB-q Coping Subscore, Mean",[1]; [4],81.66 (20.882)
same,"OAB-q Symptom Bother Subscore, Change from baseline at week 12, LS Means",[1]; [4],−21.7
same,"OAB-q Symptom Bother Subscore, Mean",[1]; [4],24.70
same,"Change from Baseline in PGI-Control, LS Mean","[1]; 75% UUI Responders, Week 4",−0.7 (0.07)
same,"PGI-Control, Mean (SD)","[1]; 75% UUI Responders, Week 4",2.51 (0.907)
same,"Change from Baseline in PGI-Control, LS Mean","[1]; 75% UUI Responders, Week 8",−1.0 (0.07)
same,"PGI-Control, Mean (SD)","[1]; 75% UUI Responders, Week 8",2.18 (0.861)
same,"Change from Baseline in PGI-Control, LS Mean","[1]; 75% UUI Responders, Week 12",−1.1 (0.07)
same,"OAB-q Coping Subscore, Change from baseline at week 12, LS Means (SE)","[1]; 75% UUI Responders, Week 12",18.4 (1.73)
same,"OAB-q Coping Subscore, Mean (SD)","[1]; 75% UUI Responders, Week 12",83.05 (20.409)
same,"OAB-q Symptom Bother Subscore, Change from Baseline at Week 12, LS Means (SE)","[1]; 75% UUI Responders, Week 12",−22.7 (1.60)
same,"OAB-q Symptom Bother Subscore, Mean (SD)","[1]; 75% UUI Responders, Week 12",22.59 (17.919)
same,"PGI-Control, Mean (SD)","[1]; 75% UUI Responders, Week 12",2.05 (0.862)
same,"OAB-q Concern Subscore, Week 12 Mean (SD)",[1]; Week 12,80.93 (21.467)
same,"OAB-q Concern responders, Difference from Placebo",[1]; Week 12,7.2
same,"OAB-q Concern, Active - Placebo LS Means Difference",[1]; Week 12,4.4
same,"OAB-q Concern, change from baseline LS Means (SE)",[1]; Week 12,14.7(1.32)
same,"OAB-q Coping Score, Active - Placebo LS Means Difference",[1]; Week 12,3.1
same,"OAB-q Coping Score, change from baseline LS Means (SE)",[1]; Week 12,15.9 (1.39)
same,"OAB-q Coping Sub score, Week 12 Mean (SD)",[1]; Week 12,77.77 (23.439)
same,"OAB-q Coping responders, Difference from Placebo",[1]; Week 12,6.9
same,"OAB-q HRQL Total Score, Active - Placebo LS Means Difference",[1]; Week 12,2.9
same,"OAB-q HRQL Total Score, change from baseline LS Means (SE)",[1]; Week 12,13.6 (1.19)
same,"OAB-q Sleep Subscore, Week 12 Mean (SD)",[1]; Week 12,74.25 (23.140)
same,"OAB-q Sleep responders, Difference from Placebo",[1]; Week 12,−0.5
same,"OAB-q Sleep, Active - Placebo LS Means Difference",[1]; Week 12,2.6
same,"OAB-q Sleep, change from baseline LS Means (SE)",[1]; Week 12,12.9 (1.42)
same,"OAB-q Social Interaction Subscore, Week 12 Mean (SD)",[1]; Week 12,88.35 (18.214)
same,"OAB-q Social Interaction responders, Difference from Placebo",[1]; Week 12,2.2
same,"OAB-q Social Interaction, Active - Placebo LS Means Difference",[1]; Week 12,0.6
same,"OAB-q Social Interaction, change from baseline LS Means (SE)",[1]; Week 12,9.4 (1.03)
same,"OAB-q Symptom Bother Subscore, Week 12 Mean (SD)",[1]; Week 12,29.33 (19.568)
same,"OAB-q Symptom Bother responders, Difference from Placebo",[1]; Week 12,8.2
same,"OAB-q Symptom Bother, Active - Placebo LS Means Difference",[1]; Week 12,−4.6
same,"OAB-q Symptom Bother, change from baseline LS Means (SE)",[1]; Week 12,−17.4 (1.31)
same,"OAB-q Total HRQL Score, Week 12 Mean (SD)",[1]; Week 12,80.07 (19.826)
same,"OAB-q Total HRQL responders, Difference from Placebo",[1]; Week 12,3.1
same,"OAB-q Symptom Bother responders, %","[1]; Week 12, responder = change from baseline ≤−10",(66.5) %
same,"OAB-q Concern responders, %",[1]; [5],(57.0) %
same,"OAB-q Coping responders, %",[1]; [5],(61.3) %
same,"OAB-q Sleep responders, %",[1]; [5],(51.3) %
same,"OAB-q Social Interaction responders, %",[1]; [5],(37.4) %
same,"OAB-q Total HRQL responders, %",[1]; [5],(51.8) %
same,"OAB-q Concern responders, Odds Ratio","[1]; Week 12, vs placebo",1.6
same,"OAB-q Coping responders, Odds Ratio","[1]; Week 12, vs placebo",1.5
same,"OAB-q Sleep responders, Odds Ratio","[1]; Week 12, vs placebo",1.1
same,"OAB-q Social Interaction responders, Odds Ratio","[1]; Week 12, vs placebo",1.2
same,"OAB-q Symptom Bother responders, Odds Ratio","[1]; Week 12, vs placebo",1.6
same,"OAB-q Total HRQL responders, Odds Ratio","[1]; Week 12, vs placebo, logistic regression",1.3
same,"Change from baseline in volume voided per micturition at Week 8, difference from placebo in LS means",[2],30.77 mL
same,"Micturitions: adjusted difference from placebo at Week 8, difference in LS means (MMRM)",[2],−0.6
same,"Micturitions: change from baseline at Week 8, mean",[2],−1.73
same,"Micturitions: daily number of events, Week 8 mean",[2],9.24
same,"Micturitions: difference from placebo at Week 8, difference in LS means (cLDA)",[2],−0.54
same,"Urgency episodes: adjusted difference from placebo at Week 8, difference in LS means (MMRM)",[2],−1.0
same,"Urgency episodes: change from baseline at Week 8, mean",[2],−2.52
same,"Urgency episodes: daily number of events, Week 8 mean",[2],3.91
same,"Urgency episodes: difference from placebo at Week 8, difference in LS means (cLDA)",[2],−0.94
same,"Total incontinence episodes: adjusted difference from placebo at Week 8, difference in LS means (MMRM)",[2]; OAB Wet subjects,−0.3
same,"Total incontinence episodes: change from baseline at Week 8, mean",[2]; OAB Wet subjects,−1.80
same,"Total incontinence episodes: daily number of events, Week 8 mean",[2]; OAB Wet subjects,1.32
same,"Total incontinence episodes: difference from placebo at Week 8, difference in LS means (cLDA)",[2]; OAB Wet subjects,−0.34
same,"Urgency incontinence episodes: adjusted difference from placebo at Week 8, difference in LS means (MMRM)",[2]; OAB Wet subjects,−0.4
same,"Urgency incontinence episodes: change from baseline at Week 8, mean",[2]; OAB Wet subjects,−1.67
same,"Urgency incontinence episodes: daily number of events, Week 8 mean",[2]; OAB Wet subjects,1.15
same,"Urgency incontinence episodes: difference from placebo at Week 8, difference in LS means (cLDA)",[2]; OAB Wet subjects,−0.46
same,"PVR category at Week 12 <100 mL, patients",[3]; Females,94.4%
same,"PVR category at Week 12 ≥100 mL to <200 mL, patients",[3]; Females,5.3%
same,"PVR category at Week 12 ≥200 mL to <350 mL, patients",[3]; Females,0.3%
same,"PVR category at Week 12 ≥350 mL, patients",[3]; Females,0
same,"PVR, Mean Change from Baseline at Week 12 (SD)",[3]; Females,1.9 (40.24) mL
same,"PVR category at Week 12 <100 mL, patients",[3]; Males,85.2%
same,"PVR category at Week 12 ≥100 mL to <200 mL, patients",[3]; Males,11.5%
same,"PVR category at Week 12 ≥200 mL to <350 mL, patients",[3]; Males,3.3%
same,"PVR category at Week 12 ≥350 mL, patients",[3]; Males,0
same,"PVR, Mean Change from Baseline at Week 12 (SD)",[3]; Males,10.2 (44.24) mL
same,"PVR category at Week 12 <100 mL, patients",[3]; [6],71.4%
same,"PVR category at Week 12 ≥100 mL to <200 mL, patients",[3]; [6],28.6%
same,"PVR category at Week 12 ≥200 mL to <350 mL, patients",[3]; [6],0%
same,"PVR category at Week 12 ≥350 mL, patients",[3]; [6],0
same,"PVR, Mean Change from Baseline at Week 12 (SD)",[3]; [6],3.7 (50.64) mL
same,"PVR category at Week 12 <100 mL, patients",[3]; all patients,86.5%
same,"PVR category at Week 12 ≥100 mL to <200 mL, patients",[3]; all patients,5.8%
same,"PVR category at Week 12 ≥200 mL to <350 mL, patients",[3]; all patients,0.7%
same,"PVR category at Week 12 ≥350 mL, patients",[3]; all patients,0
same,"PVR, Mean Change from Baseline at Week 12 (SD)",[3]; all patients,3.1 (40.93) mL
